This is an account of results in patent US20150072995A1, “TREATMENT OF MALE SEXUAL DYSFUNCTION” (Ixchelsis Limited, priority 2002, published 2015).

For series [1], the system named is anaesthetised rats. Put plainly: Penile erection and p-chloroamphetamine (PCA)-induced ejaculation test in anaesthetised rats. The class given is in vivo, rat.
Series [2] can be described thus: Free plasma concentration in rats. It is filed as in vivo, rat. Particulars: for concentration at 30 minutes: rat, plasma, preliminary pharmacokinetic studies.
Series [3] concerns anaesthetised rats. As to the kind of experiment: Splanchnic nerve-stimulated seminal vesicle pressure in anaesthetised rats. The class given is in vivo, rat. The text has this: Seminal vesicle contraction is essential for emission and the seminal fluid delivered into the prostatic urethra is thought to trigger ejaculation. Oxytocin has direct contractile effects on mammalian seminal vesicles and may additionally have a neuromodulator role influencing sympathetic innervation during ejaculation. In this study seminal vesicle contraction was reduced by 41% after a 1 mgkg^−1 bolus injection (see FIG. 2 below).

The nature of the next series: CNS penetration. Particulars: in vivo.
Series [4] addresses T1, Human cloned vasopressin V1a receptor in CHO cells (Homo sapiens, UniProt P37288).
T1 construct: expressed in transfected cells; host or cells: CHO cells (membrane preparation)
As to the kind of experiment: Vasopressin V1a receptor binding assay (3H-AVP, filtration). The following applies: printed as [6.3 nM OT: 148 nM V1a]; read-out: V1a (vasopressin V1a receptor affinity). The protocol: B. Vasopressin VIA Receptor Binding Assay
iii) Membrane Preparation • Frozen cell pellets are retrieved from the freezer and thawed gently on ice. • 3 ml of membrane prep buffer per ml of original packed cell volume is • added and the suspension homogenised with a polytron for several bursts • of 5 seconds on ice until well dispersed before centrifuging at 1000 rpm for 10 mins • The supernatant is removed and stored on ice. A further 3 ml of membrane prep buffer per ml of original packed cell volume is added to the pellet, homogenised on ice and then centrifuged at 1000 rpm for 10 mins • The supernatant is removed, added to the previously removed volume of supernatant and then centrifuged at 25,000×g and 4° C. for 30 mins • The 25,000×g pellet is re-suspended by homogenisation in 1 ml of freezing buffer per ml of original packed cell volume and the protein concentration determined […]
Specific binding is calculated as follows: […]

The next series has as its target T2, oxytocin receptor (Homo sapiens, UniProt P30559).
T2 sequence (P30559 1-389): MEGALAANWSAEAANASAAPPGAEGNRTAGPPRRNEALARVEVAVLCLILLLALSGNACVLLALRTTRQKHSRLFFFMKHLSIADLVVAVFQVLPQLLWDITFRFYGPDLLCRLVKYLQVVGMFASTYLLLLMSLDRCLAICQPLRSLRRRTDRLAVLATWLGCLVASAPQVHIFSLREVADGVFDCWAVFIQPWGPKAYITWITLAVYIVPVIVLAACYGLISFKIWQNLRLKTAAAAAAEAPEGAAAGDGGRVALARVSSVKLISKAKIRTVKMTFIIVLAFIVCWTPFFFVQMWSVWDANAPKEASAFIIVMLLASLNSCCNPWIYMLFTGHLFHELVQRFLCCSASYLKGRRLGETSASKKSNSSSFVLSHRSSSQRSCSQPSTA
Put plainly: biochemical.

The subject of series [5] is sexually-experienced rats. As to the kind of experiment: Male sexual behaviour model (copulatory behaviour with receptive female). It is filed as in vivo, rat. As to the method:
For all the sexual behaviour tests, the male rats were placed in an observation arena (50-60 cm diameter), starting 5 hours into the dark cycle and observed under red illumination. Three to four minutes after placing the male in the arena, a receptive female (ovariectomised, oestradiol benzoate/progesterone injection 48 hour before behavioural study) was introduced into the arena and the following parameters noted: • i) ejaculatory latency (EJL; time taken from addition of receptive female into the arena to ejaculation); • ii) copulatory efficiency (CE; ejaculatory latency/the number of intromissions to ejaculation, i.e. the number of seconds between intromissions); • iii) intromission frequency (IF; the number of intromissions to ejaculation); • iv) mount frequency (MF; the number of mounts to ejaculation); • v) post ejaculatory interval (PEI; the time taken from ejaculation to the commencement of copulatory behaviour).

Another series relates to human volunteers. The following applies: cited from earlier work.
A further series relates to male animals. The following applies: cited from earlier work.
Series [6] deals with rats, rabbits and monkeys. The following applies: cited from earlier work.
The subject of a further series is rats. Particulars: cited from earlier work.
In a further series the test system is experienced male rats. The following applies: ICV injection, Argiolas et al 1988; cited from earlier work.
The subject of series [7] is rat. Particulars: cited from earlier work.
In series [8] the test system is rat. The following applies: 100 ng/rat icv; cited from earlier work.
The mark [9] stands for this setting: infusion into the 3rd ventricle.

Like-named read-outs stand apart in the source and are kept apart here.

T1 sequence (P37288 whole entry): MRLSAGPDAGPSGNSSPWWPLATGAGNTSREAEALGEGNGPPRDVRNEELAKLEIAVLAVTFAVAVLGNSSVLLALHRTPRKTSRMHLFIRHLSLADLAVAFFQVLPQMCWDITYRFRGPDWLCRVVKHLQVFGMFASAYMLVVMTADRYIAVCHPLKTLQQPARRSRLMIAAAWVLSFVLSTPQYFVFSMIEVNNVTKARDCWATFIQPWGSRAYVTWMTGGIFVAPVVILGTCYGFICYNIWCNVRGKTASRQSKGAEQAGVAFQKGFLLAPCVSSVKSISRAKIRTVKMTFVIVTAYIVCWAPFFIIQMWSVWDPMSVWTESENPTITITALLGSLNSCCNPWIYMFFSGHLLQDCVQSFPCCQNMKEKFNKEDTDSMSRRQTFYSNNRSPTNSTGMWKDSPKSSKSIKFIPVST
Method for oxytocin receptor: • a) HTA stock compounds at 4 mM in 100% DMSO • b) Dilute compounds to 200 μM in dH2O. • c) Further dilute compounds to 100 μM in 100 mM Tris-HCl, pH 7.8, 20 mM MgCl2. […]
• Cell pellets are retrieved from the freezer, thawed on ice and resuspended in 3 ml of membrane prep buffer per ml packed cell volume. • The suspension is then homogenised using a mechanical homogeniser for several bursts of 5 secs on ice before centrifuging at 25,000×g for 30 mins. • After resuspending the pellet in 1 ml of freezing buffer per 1 ml of the original packed cell volume the suspension is briefly homogenised to remove small lumps. Protein concentrations are then measured and the membrane suspension is finally frozen in aliquots at a minimum of 5 mg/ml at −80° C.
• Membranes are thawed on ice before diluting to 1 mg/ml in assay buffer. […] Following a 4 hour incubation at room temperature, the plates are counted using the TopCount NXT for 30 s/well.
For the test compounds, the amount of ligand bound to the receptor is expressed as follows: […]

In the case of `Cc1ccccc1N1CCN(S(=O)(=O)CC23CCC(C[C@@H]2NC(=O)[C@@H](N)CCS(C)(=O)=O)C3(C)C)CC1` (stereo partly drawn) [L-368,899], the “PCA-induced erections resulting in penile cups” value in the series on anaesthetised rats [1] (0.1 mg/kg) was found to be 98%; in the series on anaesthetised rats [1] (1.0 mg/kg sc), 95%. Further, the “PCA-induced erections resulting in penile flares” value is 88% in the series on anaesthetised rats [1] (0.1 mg/kg) and 61% in the series with anaesthetised rats [1] (1.0 mg/kg sc). Also, in the series on anaesthetised rats [1] (PCA-induced ejaculation, at free plasma concentrations 5.4±1.5 nM), the “Ejaculation delayed (near maximal effect)” value is 140%. Besides, the “delay of PCA-induced ejaculation” value in the series on anaesthetised rats [1] (anaesthetised rats, 0.1-10 mgkg^−1 sc) was “significantly delayed”. Further, the free plasma concentration result in series [2] (after a 1.0 mgkg^−1 iv injection, based on literature PK and protein plasma binding) is on record as “approximately 60 nM”. Moreover, the “free plasma concentration at which ejaculation was delayed 140%” value in series [2] (anaesthetised rats, sc) is 5.4 ± 1.5 nM. The concentration at 30 minutes was determined as 4.5 nM in series [2] (30 minutes after 1 mgkg^−1 sc) and 40 nM in series [2] (30 minutes after 10 mgkg^−1 sc). In addition, in the series with anaesthetised rats [3] (1-3 mgkg^−1 iv), the “splanchnic nerve-stimulated increases in seminal vesicle pressure” value is given as “significantly reduced”. Further, in the series with anaesthetised rats [3] (after a 1 mgkg^−1 bolus injection), the “reduction of seminal vesicle contraction” value came to 41%. Besides, the CNS penetration result in the series “CNS penetration” is “very poor”. Moreover, the Ki in series [4] amounted to 148 nM; on oxytocin receptor, 6.3 nM. The “effect on copulatory efficiency” value is on record as “no significant effects” in series [5] (50 ng/rat icv) and “no effects” in [5] (any of the doses tested, 0.05-10 mgkg^−1 sc). Besides, the “effect on copulatory behaviour” value in [5] (doses up to 10 mgkg^−1 sc) is “no effect”.
With `C=CCN1CC[C@]23c4c5ccc(O)c4O[C@H]2C(=O)CC[C@@]3(O)[C@H]1C5` [naloxone], in the series on human volunteers, the effect on ejaculation result was “no effect” and the “serum oxytocin pulse typically observed at ejaculation” value is listed as “eliminated”.
Consider `CC[C@H](C)[C@@H]1NC(=O)[C@H](Cc2ccc(O)cc2)NC(=O)[C@@H](N)CSSC[C@@H](C(=O)N2CCC[C@H]2C(=O)N[C@@H](CC(C)C)C(=O)NCC(N)=O)NC(=O)[C@H](CC(N)=O)NC(=O)[C@H](CCC(N)=O)NC1=O` [oxytocin], for which, in the series with male animals (injected either centrally or peripherally), the “ejaculation latency and post-ejaculation interval” value is given as “shortens”. Also, the penile erections result in the series with male animals (injected into specific areas of the brain (periventricular nucleus of the hypothalamus)) was “facilitates”. Further, in series [6] (central administration), the “latency to achieve ejaculation” value was “reduce” and the post-ejaculatory interval result was “shorten”. Further, the “induction of penile erection” value in series [6] (rats, rabbits and monkeys) is “one of the most potent agents to induce penile erection”. Further, in the series with rats (setting [9]), the ejaculatory latency entry was “no effect”; the “latencies to the first mount and intromission” value is recorded as “increased”; the “post ejaculatory refractory periods” value is on record as “lengthened”. Moreover, in the series on rats (intravenous infusion), the ejaculatory latency result is “no effect” and the “number of intromissions made before ejaculation” value is “dose dependently reduced”.
Consider d(CH2)5Tyr(Me)-Orn^8-vasotocin, for which, in the series on experienced male rats, the ejaculation result is “abolishment”, the penile erection result is reported as “prevent penile erection” and the sexual performance entry was “impair”. Also, the “number of non-contact erections” value in the series with rat [7] (100 ng/rat icv) is given as “reduces”. The non-contact penile erections result in the series on rat [7] (Melis et al 1999, dose not given) is “significantly reduces”. For the same molecule, the drug-induced erections result in the series with rat [8] was “abolished”. For the same molecule, in series [5] (50 ng/rat icv), the copulatory behaviour entry is listed as “abolished”. Also, the “effect on ejaculatory latency” value in series [5] (doses up to 25 ng/rat icv, previous studies) was “no effect”.
